The source made the active and inactive calls. No cut-off for these calls is given here.
How the values were obtained:
[1] = target: T1, Protein cereblon/Phospholipid hydroperoxide glutathione peroxidase GPX4 (Homo sapiens) (UniProt Q96SW2+P36969); test: PROTAC activity at CRBN/GPX4 in human HT-1080 cells assessed as induction of GPX4 degradation at 1 uM incubated for 24 hrs by Western blot analysis relative to control; assay type: cell-based
[2] = target: T1, Protein cereblon/Phospholipid hydroperoxide glutathione peroxidase GPX4 (Homo sapiens); test: PROTAC activity at CRBN/GPX4 in human HT-1080 cells assessed as induction of GPX4 degradation at 0.1 uM incubated for 24 hrs by Western blot analysis relative to control; assay type: cell-based
[3] = target: T1, Protein cereblon/Phospholipid hydroperoxide glutathione peroxidase GPX4 (Homo sapiens); test: PROTAC activity at CRBN/GPX4 in human HT-1080 cells assessed as induction of GPX4 degradation at 1 uM by Western blot analysis; assay type: cell-based; settings: time <= 24.0 hrs, TDE = time-dependent effect
HT-1080 [4] = test: Antiproliferative activity against human HT-1080 cells assessed as reduction in cell viability incubated for 24 hrs by MTT assay; assay type: functional, cell-based; settings: HT-1080, 24 h
[5] = target: Protein cereblon/Phospholipid hydroperoxide glutathione peroxidase GPX4 (Homo sapiens, UniProt P36969+Q96SW2); test: (§1) PROTAC activity at CRBN/GPX4 in human HT-1080 cells assessed as induction of GPX4 degradation incubated for 24 hrs by Western blot analysis; assay type: cell-based
[6] = target: T1, Protein cereblon/Phospholipid hydroperoxide glutathione peroxidase GPX4 (Homo sapiens); test: as §1; assay type: cell-based
Calu-1 = test: Antiproliferative activity against human Calu-1 cells assessed as reduction in cell viability incubated for 24 hrs by MTT assay; assay type: functional, cell-based; settings: Calu-1, 24 h
HT-1080 [7] = test: Induction of ferroptosis in human HT-1080 cells assessed as increase in ROS accumulation at 0.3 uM measured at 6 to 12 hrs by fluorescence intensity based flow cytometric analysis; assay type: functional, cell-based; settings: time 6-12 hrs
[8] = target: T2, Phospholipid hydroperoxide glutathione peroxidase GPX4 (Homo sapiens, UniProt P36969); test: Induction of GPX4 degradation in human HT-1080 cells measured after 24 hrs; assay type: cell-based
T2 sequence (P36969 whole entry): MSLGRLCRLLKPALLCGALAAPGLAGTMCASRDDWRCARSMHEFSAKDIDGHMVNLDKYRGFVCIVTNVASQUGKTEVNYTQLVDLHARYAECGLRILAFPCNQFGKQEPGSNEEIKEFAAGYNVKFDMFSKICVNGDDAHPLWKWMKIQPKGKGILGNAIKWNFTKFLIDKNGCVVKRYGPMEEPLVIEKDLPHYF

[9] = target: T3, Phospholipid hydroperoxide glutathione peroxidase GPX4 (Homo sapiens) (UniProt P36969); test: Induction of GPX4 degradation in human HT-1080 cells assessed as reduction in GPX4 protein level measured after 6 hrs; assay type: cell-based
T3 sequence (whole entry): T2 sequence (P36969 whole entry)

A-375 = test: Antiproliferative activity against human A-375 cells assessed as reduction in cell viability incubated for 24 hrs by MTT assay; assay type: functional, cell-based; settings: A-375, 24 h
[10] = target: T3, Phospholipid hydroperoxide glutathione peroxidase GPX4 (Homo sapiens); test: Induction of GPX4 degradation in human HT-1080 cells measured after 12 hrs relative to control; assay type: cell-based
[11] = Cytotoxicity against HEK293T cells assessed as reduction in cell viability measured after 24 hrs by MTT assay; assay type: toxicity, cell-based, HEK-293T; settings: human
[12] = Toxicity in Balb/c nude mouse xenografted with human HT-1080 cells assessed as body weight loss at 3 mg/kg, iv administered once every two days for 10 days; assay type: organism-based; settings: in vivo, 240 h, time 10 day
[13] = target: T1, Protein cereblon/Phospholipid hydroperoxide glutathione peroxidase GPX4 (Homo sapiens); test: PROTAC activity at CRBN/GPX4 in human HT-1080 cells assessed as induction of GPX4 degradation at 0.1 uM incubated for 12 hrs by Western blot analysis relative to control; assay type: cell-based
[14] = target: T1, Protein cereblon/Phospholipid hydroperoxide glutathione peroxidase GPX4 (Homo sapiens); test: PROTAC activity at CRBN/GPX4 in human HT-1080 cells assessed as induction of GPX4 degradation at 0.3 uM incubated for 24 hrs by Western blot analysis relative to control; assay type: cell-based
[15] = target: T1, Protein cereblon/Phospholipid hydroperoxide glutathione peroxidase GPX4 (Homo sapiens); test: PROTAC activity at CRBN/GPX4 in human HT-1080 cells assessed as induction of GPX4 degradation at 0.1 uM preincubated with MG132 and Baf-A1 for 2 hrs followed by compound addition and measured after 12 hrs by Western blot analysis; assay type: cell-based
[16] = target: T1, Protein cereblon/Phospholipid hydroperoxide glutathione peroxidase GPX4 (Homo sapiens); test: PROTAC activity at CRBN/GPX4 in human HT-1080 cells assessed as induction of GPX4 degradation in the presence of ML210 by ligand competition assay; assay type: cell-based
[17] = target: T1, Protein cereblon/Phospholipid hydroperoxide glutathione peroxidase GPX4 (Homo sapiens); test: PROTAC activity at CRBN/GPX4 in human HT-1080 cells assessed as induction of GPX4 degradation in the presence of lenalidomide by ligand competition assay; assay type: cell-based
[18] = Toxicity in Balb/c nude mouse xenografted with human HT-1080 cells assessed as body weight loss at 5 to 40 mg/kg, iv administered once every two days for 10 days; assay type: organism-based; settings: in vivo, 240 h, dose 5-40 mg/kg, time 10 day
HT-1080 [19] = test: Induction of ferroptosis in human HT-1080 cells assessed as cell death at 0.3 uM preincubated with liproxstin-1 for 2 hrs followed by compound addition and measured after 12 hrs by fluorescence intensity based flow cytometric analysis; assay type: functional
[20] = Potency index, ratio of test compound IC50 to ML210 IC50 for cytotoxicity against HEK293T cells; assay type: toxicity, cell-based, HEK-293T; settings: human, read-out: Ratio IC50
HT-1080 [21] = test: Antiproliferative activity against human HT-1080 cells assessed as reduction in cell viability at 10 uM incubated for 24 hrs in the presence of liproxstin-1 by MTT assay; assay type: functional, cell-based
HT-1080 [22] = test: Induction of ferroptosis in human HT-1080 cells assessed as increase in ROS accumulation at 0.3 uM measured upto 12 hrs by fluorescence intensity based flow cytometric analysis; assay type: functional, cell-based
[23] = target: T1, Protein cereblon/Phospholipid hydroperoxide glutathione peroxidase GPX4 (Homo sapiens); test: Potency index, ratio of […] EC50 to test compound EC50 for PROTAC activity at CRBN/GPX4 in human HT-1080 cells; assay type: cell-based
Mus musculus = test: In vivo PROTAC activity at CRBN/GPX4 in human HT-1080 cells xenografted in Balb/c nude mouse assessed as reduction in GPX4 level in tumor at 20 mg/kg,iv administered as single dose by immunoblotting analysis; assay type: functional, organism-based; settings: time 6-48 hrs, TDE = time-dependent effect

Structure (SMILES): Cc1onc(C(=O)N2CCN(C(c3ccc(Cl)cc3)c3ccc(OCC(=O)N4CCN(CCCCCCCCCCCNc5cccc6c5CN(C5CCC(=O)NC5=O)C6=O)CC4)cc3)CC2)c1[N+](=O)[O-] (centres undefined)
- Activity [1]: 54%

Structure (SMILES): Cc1onc(C(=O)N2CCN(C(c3ccc(Cl)cc3)c3ccc(OCC(=O)N4CCC(CN5CCN(CCNc6cccc7c6C(=O)N(C6CCC(=O)NC6=O)C7=O)CC5)CC4)cc3)CC2)c1[N+](=O)[O-] (centres undefined)
- Activity [2]: 36%
- Activity [1]: > 80%

Structure (SMILES): Cc1onc(C(=O)N2CCN(C(c3ccc(Cl)cc3)c3ccc(OCC(=O)N4CCN(CCCCCCCCCNc5cccc6c5CN(C5CCC(=O)NC5=O)C6=O)CC4)cc3)CC2)c1[N+](=O)[O-] (centres undefined)
- Activity [1]: 40%
- Activity [3]: Tde
- IC50 (HT-1080 [4]): 300 nM
- EC50 [5]: 400 nM
- Activity [6]: Dose-Dependent Effect

Structure (SMILES): Cc1onc(C(=O)N2CCN(C(c3ccc(Cl)cc3)c3ccc(OCC(=O)N4CCN(CCCCCCCNc5cccc6c5CN(C5CCC(=O)NC5=O)C6=O)CC4)cc3)CC2)c1[N+](=O)[O-] (centres undefined)
- Activity [1]: 13%

Structure (SMILES): Cc1onc(C(=O)N2CCN(C(c3ccc(Cl)cc3)c3ccc(OCC(=O)N4CCC(CN5CCC(CN6CCC(Nc7cccc8c7C(=O)N(C7CCC(=O)NC7=O)C8=O)CC6)CC5)CC4)cc3)CC2)c1[N+](=O)[O-] (centres undefined)
- Activity [1]: 25%
- IC50 (HT-1080 [4]): 1200 nM

Structure (SMILES): Cc1onc(C(=O)N2CCN(C(c3ccc(Cl)cc3)c3ccc(OCC(=O)N4CCC(CN5CCC(CN6CCN(c7cccc8c7C(=O)N(C7CCC(=O)NC7=O)C8=O)CC6)CC5)CC4)cc3)CC2)c1[N+](=O)[O-] (centres undefined)
- Activity [1]: 30%
- IC50 (HT-1080 [4]): 1000 nM

Structure (SMILES): Cc1onc(C(=O)N2CCN(C(c3ccc(Cl)cc3)c3ccc(OCC(=O)N4CCC(CN5CCN(CCCCNc6cccc7c6C(=O)N(C6CCC(=O)NC6=O)C7=O)CC5)CC4)cc3)CC2)c1[N+](=O)[O-] (centres undefined)
- Activity [2]: 42%
- Activity [1]: 70%

Structure (SMILES): Cc1onc(C(=O)N2CCN(C(c3ccc(Cl)cc3)c3ccc(OCC(=O)N4CCN(CCCCCCCCCCCCCNc5cccc6c5CN(C5CCC(=O)NC5=O)C6=O)CC4)cc3)CC2)c1[N+](=O)[O-] (centres undefined)
- Activity [1]: 36%

Structure (SMILES): Cc1onc(C(=O)N2CCN(C(c3ccc(Cl)cc3)c3ccc(OCC(=O)N4CCC(CN5CCN(CCCCCNc6cccc7c6C(=O)N(C6CCC(=O)NC6=O)C7=O)CC5)CC4)cc3)CC2)c1[N+](=O)[O-] (centres undefined)
- Activity [2]: 33%
- Activity [1]: > 80%

Structure (SMILES): Cc1onc(C(=O)N2CCN(C(c3ccc(Cl)cc3)c3ccc(Cl)cc3)CC2)c1[N+](=O)[O-]
- IC50 (Calu-1): 900 nM
- Activity (HT-1080 [7]): inactive
- EC50 [8]: 650 nM
- Activity [9]: Active
- IC50 (A-375): 300 nM
- Activity [10]: > 60%
- IC50 (HT-1080 [4]): 100 nM
- IC50 at 24 h [11]: 200 nM
- Activity [12]: Toxic

Structure (SMILES): Cc1onc(C(=O)N2CCN(C(c3ccc(Cl)cc3)c3ccc(OCC(=O)N4CCC(CN5CCN(CCCCCCNc6cccc7c6C(=O)N(C6CCC(=O)NC6=O)C7=O)CC5)CC4)cc3)CC2)c1[N+](=O)[O-] (centres undefined)
- Activity [2]: 50%
- Activity [1]: > 80%

Structure (SMILES): Cc1onc(C(=O)N2CCN(C(c3ccc(Cl)cc3)c3ccc(OCC(=O)N4CCN(CCCCCCCCCCCCNc5cccc6c5CN(C5CCC(=O)NC5=O)C6=O)CC4)cc3)CC2)c1[N+](=O)[O-] (centres undefined)
- Activity [1]: 32%

Structure (SMILES): Cc1onc(C(=O)N2CCN(C(c3ccc(Cl)cc3)c3ccc(OCC(=O)N4CCN(CCCCCCCCCCNc5cccc6c5CN(C5CCC(=O)NC5=O)C6=O)CC4)cc3)CC2)c1[N+](=O)[O-] (centres undefined)
- Activity [1]: 43%

Structure (SMILES): Cc1onc(C(=O)N2CCN(C(c3ccc(Cl)cc3)c3ccc(OCC(=O)N4CCN(CCCCCCCCNc5cccc6c5CN(C5CCC(=O)NC5=O)C6=O)CC4)cc3)CC2)c1[N+](=O)[O-] (centres undefined)
- Activity [1]: 36%

Structure (SMILES): Cc1onc(C(=O)N2CCN(C(c3ccc(Cl)cc3)c3ccc(OCC(=O)N4CCN(CCCCCCCCCCCCCCNc5cccc6c5CN(C5CCC(=O)NC5=O)C6=O)CC4)cc3)CC2)c1[N+](=O)[O-] (centres undefined)
- Activity [1]: < 5%

Structure (SMILES): Cc1onc(C(=O)N2CCN(C(c3ccc(Cl)cc3)c3ccc(OCC(=O)N4CCC(CN5CCN(CCCNc6cccc7c6C(=O)N(C6CCC(=O)NC6=O)C7=O)CC5)CC4)cc3)CC2)c1[N+](=O)[O-] (centres undefined)
- Activity [13]: > 80%
- Activity [2]: 82%
- Activity [14]: 100%
- IC50 (Calu-1): 300 nM
- Activity [15]: inactive
- Activity [16]: Active
- Activity [17]: Active
- IC50 (A-375): 200 nM
- Activity [1]: > 78%
- Activity [3]: Tde
- IC50 (HT-1080 [4]): 100 nM
- Activity [18]: Non-Toxic
- IC50 at 24 h [11]: 1100 nM
- Activity (HT-1080 [19]): inactive
- selectivity ratio [20]: 5
- Activity (HT-1080 [21]): inactive
- Activity (HT-1080 [22]): Active
- EC50 [5]: 30 nM
- Activity [6]: Dose-Dependent Effect
- Ratio EC50 [23]: 22
- Activity (Mus musculus): Tde
